The record followed here is ChEMBL document CHEMBL2424622, “Development of amino-pyrimidine inhibitors of c-Jun N-terminal kinase (JNK): kinase profiling guided optimization of a 1,2,3-benzotriazole lead” (Bioorg Med Chem Lett, 2013).

In test [1] the target is T1, Receptor-interacting serine/threonine-protein kinase 1 (Homo sapiens) (UniProt Q13546).
T1 sequence (whole entry): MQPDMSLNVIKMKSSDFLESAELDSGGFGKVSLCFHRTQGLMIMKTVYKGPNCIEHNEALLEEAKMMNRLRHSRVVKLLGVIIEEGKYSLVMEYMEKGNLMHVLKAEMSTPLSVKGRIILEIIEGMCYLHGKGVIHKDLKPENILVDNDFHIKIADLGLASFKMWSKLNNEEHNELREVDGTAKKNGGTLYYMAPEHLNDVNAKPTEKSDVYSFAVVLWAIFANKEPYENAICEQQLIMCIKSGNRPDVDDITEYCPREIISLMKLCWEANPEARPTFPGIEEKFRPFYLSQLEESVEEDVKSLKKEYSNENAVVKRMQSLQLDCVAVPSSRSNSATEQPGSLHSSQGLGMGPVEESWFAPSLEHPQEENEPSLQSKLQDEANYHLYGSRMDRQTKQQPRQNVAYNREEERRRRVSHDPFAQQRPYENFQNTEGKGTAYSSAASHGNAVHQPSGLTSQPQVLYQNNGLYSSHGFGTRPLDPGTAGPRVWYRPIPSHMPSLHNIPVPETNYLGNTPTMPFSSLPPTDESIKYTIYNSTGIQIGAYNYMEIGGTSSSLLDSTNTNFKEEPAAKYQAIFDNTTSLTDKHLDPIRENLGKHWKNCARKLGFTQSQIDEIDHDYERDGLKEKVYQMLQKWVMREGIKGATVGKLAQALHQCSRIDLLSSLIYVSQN
Description: Competitive binding affinity to RIPK1 (unknown origin) at 10 uM in presence of ATP relative to control.

The target of test [2] is Activated CDC42 kinase 1 (Homo sapiens) (UniProt Q07912). Description: Competitive binding affinity to TNK2 (unknown origin) at 10 uM in presence of ATP relative to control.
Activated CDC42 kinase 1 (Homo sapiens), sequence (Q07912 whole entry, looked up): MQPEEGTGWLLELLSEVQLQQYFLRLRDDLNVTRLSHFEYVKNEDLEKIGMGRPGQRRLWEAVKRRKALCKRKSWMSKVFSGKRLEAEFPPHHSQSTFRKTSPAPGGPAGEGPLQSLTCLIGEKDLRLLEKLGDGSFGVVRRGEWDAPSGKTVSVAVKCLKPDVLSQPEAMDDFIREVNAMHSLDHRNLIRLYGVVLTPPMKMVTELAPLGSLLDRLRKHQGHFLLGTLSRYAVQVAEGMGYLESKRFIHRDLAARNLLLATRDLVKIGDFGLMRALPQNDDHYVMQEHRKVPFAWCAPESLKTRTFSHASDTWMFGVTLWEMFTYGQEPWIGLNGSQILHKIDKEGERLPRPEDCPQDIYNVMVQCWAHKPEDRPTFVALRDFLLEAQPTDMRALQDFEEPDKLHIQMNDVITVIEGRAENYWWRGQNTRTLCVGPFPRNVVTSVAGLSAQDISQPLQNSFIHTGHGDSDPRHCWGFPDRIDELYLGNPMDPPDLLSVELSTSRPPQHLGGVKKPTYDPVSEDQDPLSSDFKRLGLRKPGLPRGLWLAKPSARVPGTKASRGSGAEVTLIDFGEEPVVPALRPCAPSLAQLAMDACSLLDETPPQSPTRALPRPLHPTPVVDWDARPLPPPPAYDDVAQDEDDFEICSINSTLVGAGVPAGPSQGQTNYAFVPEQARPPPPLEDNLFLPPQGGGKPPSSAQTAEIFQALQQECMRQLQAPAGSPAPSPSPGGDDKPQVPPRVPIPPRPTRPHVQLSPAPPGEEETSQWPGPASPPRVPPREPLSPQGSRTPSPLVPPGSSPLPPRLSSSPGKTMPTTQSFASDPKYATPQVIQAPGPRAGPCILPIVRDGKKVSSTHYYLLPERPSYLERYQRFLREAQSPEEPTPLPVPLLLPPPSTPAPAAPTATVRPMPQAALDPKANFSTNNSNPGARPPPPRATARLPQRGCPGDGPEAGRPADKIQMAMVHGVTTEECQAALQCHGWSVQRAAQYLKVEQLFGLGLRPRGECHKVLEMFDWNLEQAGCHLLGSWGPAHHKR
The target in test [3] is Cyclin-dependent kinase 3 (Homo sapiens) (UniProt Q00526). As to the kind of experiment: Competitive binding affinity to CDK3 (unknown origin) at 10 uM in presence of ATP relative to control.
Cyclin-dependent kinase 3 (Homo sapiens), sequence (Q00526 whole entry, looked up): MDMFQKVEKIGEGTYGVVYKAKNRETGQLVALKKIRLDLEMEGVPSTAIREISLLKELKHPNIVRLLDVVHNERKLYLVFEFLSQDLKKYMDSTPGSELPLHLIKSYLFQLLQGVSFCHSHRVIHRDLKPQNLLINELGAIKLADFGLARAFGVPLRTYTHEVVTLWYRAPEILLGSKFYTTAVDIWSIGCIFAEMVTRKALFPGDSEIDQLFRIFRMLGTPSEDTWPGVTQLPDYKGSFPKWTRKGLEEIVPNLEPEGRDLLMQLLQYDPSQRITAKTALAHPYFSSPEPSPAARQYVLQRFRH
Test [4] concerns the target T2, Serine/threonine-protein kinase D3 (Homo sapiens) (UniProt O94806).
T2 sequence (whole entry): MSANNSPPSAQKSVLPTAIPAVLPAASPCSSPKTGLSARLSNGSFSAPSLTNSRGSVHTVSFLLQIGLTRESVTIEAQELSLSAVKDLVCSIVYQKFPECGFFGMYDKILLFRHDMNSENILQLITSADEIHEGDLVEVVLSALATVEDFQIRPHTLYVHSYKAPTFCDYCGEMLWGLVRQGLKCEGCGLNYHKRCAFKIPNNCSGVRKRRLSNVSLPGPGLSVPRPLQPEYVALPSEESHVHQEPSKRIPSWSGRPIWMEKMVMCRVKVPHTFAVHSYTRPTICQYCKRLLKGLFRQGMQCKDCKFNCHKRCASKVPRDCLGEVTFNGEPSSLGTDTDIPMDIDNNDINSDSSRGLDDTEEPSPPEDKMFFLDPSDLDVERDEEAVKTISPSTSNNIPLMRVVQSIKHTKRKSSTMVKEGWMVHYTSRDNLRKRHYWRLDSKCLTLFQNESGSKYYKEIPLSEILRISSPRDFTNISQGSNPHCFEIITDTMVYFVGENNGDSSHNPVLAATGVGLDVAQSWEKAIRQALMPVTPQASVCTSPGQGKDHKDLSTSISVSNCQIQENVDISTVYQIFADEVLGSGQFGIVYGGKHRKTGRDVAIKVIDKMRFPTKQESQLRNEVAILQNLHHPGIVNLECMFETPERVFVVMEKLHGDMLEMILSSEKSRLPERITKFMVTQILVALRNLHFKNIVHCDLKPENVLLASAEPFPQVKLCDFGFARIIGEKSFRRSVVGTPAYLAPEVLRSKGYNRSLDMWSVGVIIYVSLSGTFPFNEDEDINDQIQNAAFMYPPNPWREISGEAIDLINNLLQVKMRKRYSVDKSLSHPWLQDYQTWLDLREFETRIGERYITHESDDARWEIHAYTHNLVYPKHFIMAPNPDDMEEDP
Description: Competitive binding affinity to PRKD3 (unknown origin) at 10 uM in presence of ATP relative to control.

For test [5], the target named is Non-receptor tyrosine-protein kinase TYK2 (Homo sapiens) (UniProt P29597). Description: Competitive binding affinity to TYK2 kinase domain 2 (unknown origin) at 10 uM in presence of ATP relative to control.
Non-receptor tyrosine-protein kinase TYK2 (Homo sapiens), sequence (P29597 whole entry, the tested form may be a part): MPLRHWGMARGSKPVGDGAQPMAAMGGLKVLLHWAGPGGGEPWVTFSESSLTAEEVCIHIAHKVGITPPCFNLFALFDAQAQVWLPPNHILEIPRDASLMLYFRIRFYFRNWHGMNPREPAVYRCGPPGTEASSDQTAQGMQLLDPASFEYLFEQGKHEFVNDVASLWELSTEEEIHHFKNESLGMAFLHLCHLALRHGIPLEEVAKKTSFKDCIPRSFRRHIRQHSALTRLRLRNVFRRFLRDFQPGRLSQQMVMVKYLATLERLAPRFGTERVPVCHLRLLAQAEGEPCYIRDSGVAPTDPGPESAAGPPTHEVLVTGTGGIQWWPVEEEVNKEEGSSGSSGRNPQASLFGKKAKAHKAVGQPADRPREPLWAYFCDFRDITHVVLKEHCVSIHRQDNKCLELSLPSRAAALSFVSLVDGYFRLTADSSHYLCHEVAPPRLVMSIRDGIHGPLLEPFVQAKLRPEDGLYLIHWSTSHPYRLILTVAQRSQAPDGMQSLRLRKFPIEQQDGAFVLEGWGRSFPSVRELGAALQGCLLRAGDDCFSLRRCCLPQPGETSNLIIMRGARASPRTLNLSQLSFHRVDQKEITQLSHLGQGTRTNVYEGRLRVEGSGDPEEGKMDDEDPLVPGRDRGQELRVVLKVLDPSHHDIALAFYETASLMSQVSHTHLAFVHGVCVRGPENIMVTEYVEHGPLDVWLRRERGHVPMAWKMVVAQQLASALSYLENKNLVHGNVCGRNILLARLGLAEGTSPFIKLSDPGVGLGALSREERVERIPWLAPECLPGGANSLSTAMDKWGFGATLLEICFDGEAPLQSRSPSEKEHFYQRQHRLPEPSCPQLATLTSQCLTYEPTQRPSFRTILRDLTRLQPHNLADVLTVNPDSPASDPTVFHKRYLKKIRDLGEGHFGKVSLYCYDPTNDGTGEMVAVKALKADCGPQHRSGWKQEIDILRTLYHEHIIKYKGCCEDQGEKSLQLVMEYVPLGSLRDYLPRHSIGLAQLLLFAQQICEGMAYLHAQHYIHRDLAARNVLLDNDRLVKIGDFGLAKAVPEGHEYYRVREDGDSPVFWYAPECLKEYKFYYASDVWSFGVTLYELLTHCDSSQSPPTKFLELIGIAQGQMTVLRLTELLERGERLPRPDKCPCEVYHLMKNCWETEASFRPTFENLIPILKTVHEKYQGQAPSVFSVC
Test [6] has as its target Cyclin-dependent kinase 19 (Homo sapiens) (UniProt Q9BWU1). Description: Competitive binding affinity to CDK19 (unknown origin) at 10 uM in presence of ATP relative to control.
Test [7] has as its target SRSF protein kinase 2 (Homo sapiens) (UniProt P78362). As to the kind of experiment: Competitive binding affinity to SRPK2 (unknown origin) at 10 uM in presence of ATP relative to control.
The target in test [8] is BDNF/NT-3 growth factors receptor (Homo sapiens) (UniProt Q16620). Description: Competitive binding affinity to TRKB (unknown origin) at 10 uM in presence of ATP relative to control.
BDNF/NT-3 growth factors receptor (Homo sapiens), sequence (Q16620 32-822 limits assumed): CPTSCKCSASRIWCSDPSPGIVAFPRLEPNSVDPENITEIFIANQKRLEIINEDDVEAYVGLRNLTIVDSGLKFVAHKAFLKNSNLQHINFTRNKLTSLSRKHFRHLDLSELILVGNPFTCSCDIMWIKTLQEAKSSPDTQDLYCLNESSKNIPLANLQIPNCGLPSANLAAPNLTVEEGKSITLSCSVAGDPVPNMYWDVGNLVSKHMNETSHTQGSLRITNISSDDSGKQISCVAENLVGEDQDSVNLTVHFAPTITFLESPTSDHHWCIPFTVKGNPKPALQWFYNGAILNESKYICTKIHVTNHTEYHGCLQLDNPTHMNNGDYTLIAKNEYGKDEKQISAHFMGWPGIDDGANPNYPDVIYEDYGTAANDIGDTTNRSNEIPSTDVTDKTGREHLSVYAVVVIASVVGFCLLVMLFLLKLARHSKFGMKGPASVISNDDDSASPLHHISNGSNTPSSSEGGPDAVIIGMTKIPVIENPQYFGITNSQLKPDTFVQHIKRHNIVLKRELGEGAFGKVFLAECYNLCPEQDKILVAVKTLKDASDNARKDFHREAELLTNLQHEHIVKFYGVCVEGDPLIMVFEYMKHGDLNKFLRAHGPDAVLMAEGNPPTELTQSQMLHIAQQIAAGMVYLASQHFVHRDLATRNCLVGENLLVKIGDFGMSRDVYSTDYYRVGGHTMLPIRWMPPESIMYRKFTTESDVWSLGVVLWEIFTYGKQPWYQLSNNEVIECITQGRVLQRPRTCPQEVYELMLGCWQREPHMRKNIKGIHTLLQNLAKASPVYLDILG

Cyclin-dependent kinase 19 (Homo sapiens), sequence (Q9BWU1 whole entry, looked up): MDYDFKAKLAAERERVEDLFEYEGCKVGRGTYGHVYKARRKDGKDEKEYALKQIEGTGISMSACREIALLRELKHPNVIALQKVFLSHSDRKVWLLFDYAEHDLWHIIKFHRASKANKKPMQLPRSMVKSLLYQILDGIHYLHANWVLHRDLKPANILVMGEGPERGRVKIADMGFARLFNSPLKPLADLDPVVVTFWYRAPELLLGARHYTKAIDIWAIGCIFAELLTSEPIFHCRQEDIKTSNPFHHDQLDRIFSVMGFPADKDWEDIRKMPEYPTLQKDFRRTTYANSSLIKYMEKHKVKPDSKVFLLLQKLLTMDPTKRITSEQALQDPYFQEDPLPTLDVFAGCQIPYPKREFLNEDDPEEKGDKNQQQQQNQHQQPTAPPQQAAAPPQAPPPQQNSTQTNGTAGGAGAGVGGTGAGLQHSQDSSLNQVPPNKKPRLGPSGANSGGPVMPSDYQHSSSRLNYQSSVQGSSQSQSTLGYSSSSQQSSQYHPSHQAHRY
SRSF protein kinase 2 (Homo sapiens), sequence (P78362 whole entry, looked up): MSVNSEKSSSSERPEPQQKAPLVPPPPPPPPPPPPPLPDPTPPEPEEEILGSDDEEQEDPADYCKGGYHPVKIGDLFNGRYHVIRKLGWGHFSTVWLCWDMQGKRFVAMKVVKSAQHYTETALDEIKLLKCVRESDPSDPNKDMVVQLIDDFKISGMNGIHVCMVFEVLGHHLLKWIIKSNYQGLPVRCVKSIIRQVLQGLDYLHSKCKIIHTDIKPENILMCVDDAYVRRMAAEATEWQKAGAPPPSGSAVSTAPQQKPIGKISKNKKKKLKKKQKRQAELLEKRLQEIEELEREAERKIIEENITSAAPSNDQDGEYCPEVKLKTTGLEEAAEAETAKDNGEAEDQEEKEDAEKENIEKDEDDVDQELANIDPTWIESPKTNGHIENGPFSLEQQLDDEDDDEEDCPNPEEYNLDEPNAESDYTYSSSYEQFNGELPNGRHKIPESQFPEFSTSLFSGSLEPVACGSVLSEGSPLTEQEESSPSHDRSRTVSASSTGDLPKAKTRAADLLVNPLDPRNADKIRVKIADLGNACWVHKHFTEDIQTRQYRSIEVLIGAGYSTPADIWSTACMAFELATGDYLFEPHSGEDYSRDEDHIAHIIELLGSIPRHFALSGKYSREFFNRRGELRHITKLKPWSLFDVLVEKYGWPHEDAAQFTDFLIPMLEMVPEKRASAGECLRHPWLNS

As for `O[C@H]1CC[C@H](Nc2nccc(-n3ccc4ccccc43)n2)CC1`, the inhibition is below 50% in test [1]; below 50% in test [2]; below 50% in test [3]; 94% in test [4]; below 50% in test [5]; 70% in test [6]. In addition, the inhibition in test [7] and in test [8] was below 50% throughout.

`O[C@H]1CC[C@H](Nc2nccc(-n3nnc4ccccc43)n2)CC1`: the inhibition in test [1] was below 50%; in test [2] it was below 50%; in test [3] it was 75%; in test [4], 100%; in test [5] it was below 50%; in test [6] it was 82%. Besides, the inhibition in test [7] and in test [8] was below 50% in each case.

As to `O[C@H]1CC[C@H](Nc2nccc(-n3ncc4ccccc43)n2)CC1`, the inhibition was below 50% in test [1]; below 50% in test [2]; below 50% in test [3]; 96% in test [4]; below 50% in test [5]; below 50% in test [6]. Moreover, the inhibition in test [7] and in test [8] was below 50% each time.

For `O[C@H]1CC[C@H](Nc2nccc(-c3n[nH]c4ccccc34)n2)CC1`, the inhibition is below 50% in test [2], 86% in test [5] and 100% in test [8].
